Read-outs that look alike come from different tables or passages of the source.
What was measured:
human dopamine D3R = human dopamine D3R (Homo sapiens (Human), UniProt P35462); experiment: D3R mitogenesis assay: stimulation or inhibition of quinpirole-stimulated mitogenesis in CHO cells; format: cell-based; details: inhibition of quinpirole-stimulated mitogenesis
5-HT2C = 5-HT2C (Homo sapiens (Human), UniProt P28335); experiment: 5-HT2C [125I]DOI binding; details: read-out: 5-HT2C [125I]DOI Ki ± SEM
human D3R = human D3R (Homo sapiens (Human), UniProt P35462); experiment: Radioligand competition binding, [3H]N-methylspiperone, HEK293 membranes expressing human D3R; details: for Ki: read-out: D3R Ki ± SEM; for D2/D3: ratio of Ki values
Method: (§1) Binding at dopamine D2-like receptors was determined using previously described methods. […] Upon reaching 80-90% confluence, cells were harvested using pre-mixed Earle's Balanced Salt Solution (EBSS) with […] EDTA (Life Technologies) and centrifuged at 3000 rpm for 10 min at 21° C. The supernatant was removed and the pellet was resuspended in 10 mL hypotonic lysis buffer (5 mM MgCl2.6H2O, 5 mM Tris, pH 7.4 at 4° C.) and centrifuged at 20,000 rpm for 30 min at 4° C. The pellet was then resuspended in fresh EBSS buffer made from 8.7 g/L Earle's Balanced Salts without phenol red (US Biological, Salem, Mass.), 2.2 g/L sodium bicarbonate, pH to 7.4. A Bradford protein assay (Bio-Rad, Hercules, Calif.) was used to determine the protein concentration and membranes were diluted to 500 μg/mL and stored in a −80° C. freezer for later use.
(§2) Radioligand competition binding experiments were conducted using thawed membranes. Test compounds were freshly dissolved in 30% DMSO and 70% H2O to a stock concentration of 100 μM. To assist the solubilization of free-base compounds, 10 μl of glacial acetic acid was added along with the DMSO. Each test compound was then diluted into 13 half-log serial dilutions using 30% DMSO vehicle; final test concentrations ranged from 10 μM to 10 pM. Previously frozen membranes were diluted in fresh EBSS to a 100 μg/mL (for hD2R or hD3R) or 200 μg/mL (hD4R) stock for binding. […] buffer with 0.2 mM sodium metabisulfite, 50 μl of diluted test compound, 100 μl of membranes (10 μg total protein for hD2R or hD3R, 20 μg total protein for hD4R), and 50 μl of [^3H]N-methylspiperone (0.4 nM final concentration; Perkin Elmer). Nonspecific binding was determined using 10 μM butaclamol (Sigma-Aldrich, St. Louis, Mo.) and total binding was determined with 30% DMSO vehicle. All compound dilutions were tested in triplicate and the reaction incubated for one hour at room temperature. The reaction was terminated by filtration through Whatman GF/B filters, presoaked for one hour in 0.5% polyethylenimine, using a Brandel R48 filtering manifold (Brandel Instruments, Gaithersburg, Md.). The filters were washed 3 times with 3 mL of ice cold EBSS buffer and transferred to scintillation vials. […] IC50 values for each compound were determined from dose-response curves and Ki values were calculated using the Cheng-Prusoff equation; these analyses were performed using GraphPad Prism version 5.00 for Windows (GraphPad Software, San Diego, Calif.). Reported Ki values were determined from least three independent experiments.
(§3) The binding affinities of the compounds were evaluated by performing competition binding studies with [^3H]N-methylspiperone using membranes prepared from HEK293 cells expressing either the human D2R or D3R.

human D2R = human D2R (Homo sapiens (Human), UniProt P14416); experiment: Radioligand competition binding, [3H]N-methylspiperone, HEK293 membranes expressing human D2R; details: read-out: D2R Ki ± SEM
Method: as §1, §2, §3

5-HT2A = 5-HT2A (Homo sapiens (Human), UniProt P28223); experiment: 5-HT2A [125I]DOI binding; details: read-out: 5-HT2A [125I]DOI Ki ± SEM
5-HT1A = 5-HT1A (Homo sapiens (Human), UniProt P08908); experiment: 5-HT1A [3H]-8-OH-DPAT binding; details: read-out: 5-HT1A [3H]-8-OH-DPAT Ki ± SEM
[1] = Phase I metabolic stability in rat liver microsomes; format: in vitro ADME; details: phase I metabolic stability in rat liver microsomes
Description: Rat Liver Microsome Metabolic Stability: Test compounds including 3-F analogues (C4a, C4b, C5a, C5b) and 29, 19 as well as the R-, S-enantiomers of C4a, C5a, 29 and 19 were screened for phase I metabolic stability in rat liver microsomes.

human D4R = human D4R (Homo sapiens (Human), UniProt P21917); experiment: Radioligand competition binding, [3H]N-methylspiperone, HEK293 membranes expressing human D4R; details: Table 1A; for Ki: [3H]N-methylspiperone, read-out: D4R Ki ± SEM; for D4/D2 / D4/D3: ratio of Ki values
Method: Binding at dopamine D2-like receptors was determined using previously described methods. (Chen et al. “Tranylcypromine substituted cis-hydroxycyclobutylnaphthamides as potent and selective dopamine D(3) receptor antagonists.” J. Med. Chem. 2014, 57, 4962-4968) Membranes were prepared from HEK293 cells expressing human D2R, D3R or D4R, grown in a 50:50 mix of DMEM and Ham's F12 culture media, supplemented with 20 mM HEPES, 2 mM L-glutamine, 0.1 mM non-essential amino acids, 1× antibiotic/antimycotic, 10% heat-inactivated fetal bovine serum, and 200 μg/mL hygromycin (Life Technologies, Grand Island, N.Y.) and kept in an incubator at 37° C. and 5% CO2. Upon reaching 80-90% confluence, cells were harvested using pre-mixed Earle's Balanced Salt Solution (EBSS) with […] EDTA (Life Technologies) and centrifuged at 3000 rpm for 10 min at 21° C. The supernatant was removed and the pellet was resuspended in 10 mL hypotonic lysis buffer (5 mM MgCl2.6H2O, 5 mM Tris, pH 7.4 at 4° C.) and centrifuged at 20,000 rpm for 30 min at 4° C. The pellet was then resuspended in fresh EBSS buffer made from 8.7 g/L Earle's Balanced Salts without phenol red (US Biological, Salem, Mass.), 2.2 g/L sodium bicarbonate, pH to 7.4. A Bradford protein assay (Bio-Rad, Hercules, Calif.) was used to determine the protein concentration and membranes were diluted to 500 μg/mL and stored in a −80° C. freezer for later use.
Radioligand competition binding experiments were conducted using thawed membranes. Test compounds were freshly dissolved in 30% DMSO and 70% H2O to a stock concentration of 100 μM. To assist the solubilization of free-base compounds, 10 μl of glacial acetic acid was added along with the DMSO. Each test compound was then diluted into 13 half-log serial dilutions using 30% DMSO vehicle; final test concentrations ranged from 10 μM to 10 pM. Previously frozen membranes were diluted in fresh EBSS to a 100 μg/mL (for hD2R or hD3R) or 200 μg/mL (hD4R) stock for binding. Radioligand competition experiments were conducted in glass tubes containing 300 μl fresh EBSS buffer with 0.2 mM sodium metabisulfite, 50 μl of diluted test compound, 100 μl of membranes (10 μg total protein for hD2R or hD3R, 20 μg total protein for hD4R), and 50 μl of [^3H]N-methylspiperone (0.4 nM final concentration; Perkin Elmer). Nonspecific binding was determined using 10 μM butaclamol (Sigma-Aldrich, St. Louis, Mo.) and total binding was determined with 30% DMSO vehicle. All compound dilutions were tested in triplicate and the reaction incubated for one hour at room temperature. The reaction was terminated by filtration through Whatman GF/B filters, presoaked for one hour in 0.5% polyethylenimine, using a Brandel R48 filtering manifold (Brandel Instruments, Gaithersburg, Md.). The filters were washed 3 times with 3 mL of ice cold EBSS buffer and transferred to scintillation vials. 3 mL CytoScint liquid scintillation cocktail (MP Biomedicals, Solon, Ohio) was added and vials were counted using a Perkin Elmer Tri-Carb 2910 TR liquid scintillation counter (Waltham, Mass.). IC50 values for each compound were determined from dose-response curves and Ki values were calculated using the Cheng-Prusoff equation; these analyses were performed using GraphPad Prism version 5.00 for Windows (GraphPad Software, San Diego, Calif.). Reported Ki values were determined from least three independent experiments.

[2] = Table 2b, read-out: Antagonist IC50 ± S.E.M.
[3] = Table 1B, [3H]-N-methylspiperone competition, 96-well plates
[4] = Table 1B, [3H]-N-methylspiperone competition, D2LR, 96-well plates
[5] = Table 2a, read-out: Antagonist IC50 ± SEM
[6] = Table 1A, HEK 293 cells transfected with hD3R, [3H]N-methylspiperone
[7] = Table 1A, HEK 293 cells transfected with hD2LR, [3H]N-methylspiperone

Sequence of 5-HT2A (P28223 whole entry, species assumed): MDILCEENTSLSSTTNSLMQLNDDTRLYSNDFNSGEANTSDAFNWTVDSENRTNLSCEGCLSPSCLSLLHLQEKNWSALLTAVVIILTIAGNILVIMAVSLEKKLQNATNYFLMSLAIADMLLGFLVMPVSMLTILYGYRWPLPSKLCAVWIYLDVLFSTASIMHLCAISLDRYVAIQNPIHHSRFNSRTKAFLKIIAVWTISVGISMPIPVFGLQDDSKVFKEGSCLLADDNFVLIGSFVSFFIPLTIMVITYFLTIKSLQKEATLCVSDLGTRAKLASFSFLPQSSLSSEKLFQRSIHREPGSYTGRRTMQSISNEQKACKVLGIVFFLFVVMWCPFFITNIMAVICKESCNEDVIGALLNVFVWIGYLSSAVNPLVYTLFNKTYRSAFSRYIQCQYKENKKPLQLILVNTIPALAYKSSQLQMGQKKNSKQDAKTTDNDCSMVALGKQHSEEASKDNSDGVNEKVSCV
Sequence of human D4R (P21917 whole entry): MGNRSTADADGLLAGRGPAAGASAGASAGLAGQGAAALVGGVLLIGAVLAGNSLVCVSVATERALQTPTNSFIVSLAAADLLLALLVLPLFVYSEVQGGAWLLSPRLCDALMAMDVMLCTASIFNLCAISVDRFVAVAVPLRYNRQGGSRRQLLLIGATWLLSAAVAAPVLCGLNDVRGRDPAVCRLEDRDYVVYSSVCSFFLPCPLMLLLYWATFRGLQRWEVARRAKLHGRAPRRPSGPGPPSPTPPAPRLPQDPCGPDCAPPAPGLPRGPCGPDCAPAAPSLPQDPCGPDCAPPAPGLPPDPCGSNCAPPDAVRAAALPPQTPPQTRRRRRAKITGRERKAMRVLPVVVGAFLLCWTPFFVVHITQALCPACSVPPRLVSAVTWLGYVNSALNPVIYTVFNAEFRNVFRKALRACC
Sequence of human dopamine D3R (P35462 whole entry): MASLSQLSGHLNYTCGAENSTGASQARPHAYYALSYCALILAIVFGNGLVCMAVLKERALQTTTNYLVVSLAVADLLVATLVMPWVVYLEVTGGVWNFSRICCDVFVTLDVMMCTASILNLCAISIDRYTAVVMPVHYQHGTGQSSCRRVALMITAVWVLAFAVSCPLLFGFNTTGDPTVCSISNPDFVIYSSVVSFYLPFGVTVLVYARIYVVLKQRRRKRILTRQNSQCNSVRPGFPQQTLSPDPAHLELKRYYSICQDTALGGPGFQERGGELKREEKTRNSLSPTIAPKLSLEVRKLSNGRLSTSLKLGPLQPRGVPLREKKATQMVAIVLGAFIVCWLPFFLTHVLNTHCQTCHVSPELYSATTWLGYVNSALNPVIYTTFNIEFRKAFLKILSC
Sequence of human D3R (P35462 whole entry): as above
Sequence of 5-HT2C (P28335 33-458, species assumed): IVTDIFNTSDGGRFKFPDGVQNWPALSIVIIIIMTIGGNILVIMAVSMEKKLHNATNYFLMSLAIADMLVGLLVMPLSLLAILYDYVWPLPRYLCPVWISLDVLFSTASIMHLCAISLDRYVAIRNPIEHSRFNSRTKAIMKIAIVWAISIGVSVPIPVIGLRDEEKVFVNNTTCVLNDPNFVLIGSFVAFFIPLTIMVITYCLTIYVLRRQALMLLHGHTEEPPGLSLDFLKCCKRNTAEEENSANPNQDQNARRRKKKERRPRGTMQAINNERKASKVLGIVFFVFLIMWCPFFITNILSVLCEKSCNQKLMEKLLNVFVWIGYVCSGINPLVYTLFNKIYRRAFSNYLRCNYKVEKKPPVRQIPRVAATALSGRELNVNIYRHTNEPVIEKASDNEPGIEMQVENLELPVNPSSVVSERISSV
Sequence of 5-HT1A (P08908 whole entry, species assumed): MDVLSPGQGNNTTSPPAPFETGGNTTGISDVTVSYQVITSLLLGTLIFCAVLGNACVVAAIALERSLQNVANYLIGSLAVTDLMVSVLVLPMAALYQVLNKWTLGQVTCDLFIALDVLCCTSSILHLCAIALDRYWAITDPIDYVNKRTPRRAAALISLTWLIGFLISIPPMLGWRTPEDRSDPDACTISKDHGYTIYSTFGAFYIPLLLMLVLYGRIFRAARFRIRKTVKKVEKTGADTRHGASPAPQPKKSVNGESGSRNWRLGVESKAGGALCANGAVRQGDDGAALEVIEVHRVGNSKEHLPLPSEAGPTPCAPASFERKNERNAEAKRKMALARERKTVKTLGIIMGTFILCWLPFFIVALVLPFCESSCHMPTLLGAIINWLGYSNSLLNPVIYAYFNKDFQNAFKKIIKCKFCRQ
Sequence of human D2R (P14416 whole entry): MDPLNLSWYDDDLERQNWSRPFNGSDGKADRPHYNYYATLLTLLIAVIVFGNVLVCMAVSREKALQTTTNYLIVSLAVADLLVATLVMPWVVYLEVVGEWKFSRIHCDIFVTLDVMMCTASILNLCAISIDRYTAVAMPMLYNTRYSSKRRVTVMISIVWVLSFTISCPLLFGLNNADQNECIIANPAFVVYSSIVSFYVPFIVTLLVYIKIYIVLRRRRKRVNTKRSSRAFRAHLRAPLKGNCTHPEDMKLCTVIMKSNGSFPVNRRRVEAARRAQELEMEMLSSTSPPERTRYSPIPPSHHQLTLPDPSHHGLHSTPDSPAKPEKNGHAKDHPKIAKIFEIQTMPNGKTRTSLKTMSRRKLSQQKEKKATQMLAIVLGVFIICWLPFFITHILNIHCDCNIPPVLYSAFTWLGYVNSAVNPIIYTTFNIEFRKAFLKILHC

IC50 (human dopamine D3R; [2]) [nM] | Ki (human D3R; [3]) [nM] | D2/D3 (human D3R; Table 1B) | D2/D3 (human D3R; Table 1C) | Ki (human D3R; Table 1C) [nM] | Ki (human D2R; [4]) [nM] | Ki (human D2R; Table 1C) [nM] | Ki (5-HT2A; Table 3b) [nM] | Ki (5-HT1A; Table 3b) [nM] | % intact/parent remaining [1] [%] | IC50 (human dopamine D3R; [5]) [nM] | Ki (5-HT2C; Table 3a) [nM] | Ki (human D3R; [6]) [nM] | D2/D3 (human D3R; Table 1A) | Ki (human D2R; [7]) [nM] | Ki (human D4R) [nM] | D4/D2 (human D4R) | D4/D3 (human D4R) | Ki (5-HT2A; Table 3a) [nM] | Ki (5-HT1A; Table 3a) [nM] | SMILES | other results
95 ± 31 | 0.482 ± 0.15 | 257 | 327 | 0.756 ± 0.185 | 124 ± 15.8 | 247 ± 57.4 | 620 ± 120 | 910 ± 120 | 38 |  |  |  |  |  |  |  |  |  |  | CCc1cccc(N2CCN(CC(F)CCNC(=O)c3cc4ccccc4[nH]3)CC2)c1Cl (racemic) [Compound C5a, N-(4-(4-(2-chloro-3-ethylphenyl)piperazin-1-yl)-3-fluorobutyl)-1H-indole-2-carboxamide] | Ki (5-HT2C; Table 3b): 580 ± 160 nM; D3R selectivity over D2R (D2R/D3R) (human D3R): 327 fold
 |  |  |  |  |  |  |  |  |  | 420 ± 130 | 55 ± 17 | 3.19 ± 0.268 | 43 | 137 ± 9 | 714 ± 293 | 5.2 | 224 | 25 ± 6.6 | 560 ± 170 | CCc1cc(Cl)c(OC)c(N2CCN(CCCCNC(=O)c3cc4ccccc4o3)CC2)c1 [Compound 30, N-(4-(4-(3-Chloro-5-ethyl-2-methoxyphenyl)piperazin-1-yl)butyl)benzofuran-2-carboxamide] | 
 |  |  |  |  |  |  |  |  |  | 950 ± 350 | 268 ± 34 | 36.1 ± 5 | 45 | 1620 ± 339 | 5280 ± 319 | 3.3 | 146 | 42.9 ± 6.8 | 2410 ± 830 | CCc1cc(Cl)c(OC)c(N2CCN(CC(O)CCNC(=O)c3cc4ccccc4o3)CC2)c1 (stereo not shown) [Compound 31, N-(4-(4-(3-Chloro-5-ethyl-2-methoxyphenyl)piperazin-1-yl)-3-hydroxybutyl)benzofuran-2-carboxamide] | 
510 ± 130 | 28 ± 5.53 | 968 | 746 | 27.9 ± 5.64 | 27100 ± 11600 | 20800 ± 7060 | 6600 ± 1400 | 9500 ± 3000 | ~75 |  |  |  |  |  |  |  |  |  |  | CCc1cc(Cl)c(OC)c(N2CCN(CC(F)CCNC(=O)c3cc4ccccc4[nH]3)CC2)c1 (racemic) [Compound C4a, N-(4-(4-(3-chloro-5-ethyl-2-methoxyphenyl)piperazin-1-yl)-3-fluorobutyl)-1H-indole-2-carboxamide] | 
490 ± 150 | 89.9 ± 12.3 | 108 | 108 | 99.9 ± 13.4 | 9740 ± 2100 | 10800 ± 2290 | 2990 ± 530 | 2660 ± 570 | 12 |  |  |  |  |  |  |  |  |  |  | CCc1cc(Cl)c(OC)c(N2CCN(CC(F)CCNC(=O)c3cc4ccccc4o3)CC2)c1 (racemic) [Compound C4b, N-(4-(4-(3-chloro-5-ethyl-2-methoxyphenyl)piperazin-1-yl)-3-fluorobutyl)benzofuran-2-carboxamide] | Ki (5-HT2C; Table 3b): 1780 ± 390 nM
 |  |  |  |  |  |  |  |  |  | 330 ± 100 | 144 ± 37 | 0.341 ± 0.0312 | 82 | 27.8 ± 6.71 | 1040 ± 279 | 38 | 3065 | 60.1 ± 9.5 | 2330 ± 700 | CCc1cc(Cl)c(OC)c(N2CCN(CCCCNC(=O)c3cc4ccccc4[nH]3)CC2)c1 [Compound 28, N-(4-(4-(3-Chloro-5-ethyl-2-methoxyphenyl)piperazin-1-yl)butyl)-1H-indole-2-carboxamide] | 

SMILES | IC50 (human dopamine D3R; [2]) [nM] | Ki (human D3R; [3]) [nM] | D2/D3 (human D3R; Table 1B) | D2/D3 (human D3R; Table 1C) | Ki (human D3R; Table 1C) [nM] | Ki (human D2R; [4]) [nM] | Ki (human D2R; Table 1C) [nM] | Ki (5-HT2A; Table 3b) [nM] | Ki (5-HT1A; Table 3b) [nM] | % intact/parent remaining [1] [%] | IC50 (human dopamine D3R; [5]) [nM] | Ki (5-HT2C; Table 3a) [nM] | Ki (human D3R; [6]) [nM] | D2/D3 (human D3R; Table 1A) | Ki (human D2R; [7]) [nM] | Ki (human D4R) [nM] | D4/D2 (human D4R) | D4/D3 (human D4R) | Ki (5-HT2A; Table 3a) [nM] | Ki (5-HT1A; Table 3a) [nM] | other results
CCc1cccc(N2CCN(CC(O)CCNC(=O)c3cc4ccccc4[nH]3)CC2)c1Cl (racemic) [Compound 19, N-(4-(4-(2-chloro-3-ethylphenyl)piperazin-1-yl)-3-hydroxybutyl)-1H-indole-2-carboxamide] |  |  |  |  |  | 119 ± 11.1 | 132 ± 12.7 |  |  |  |  | 113 ± 33 |  |  | 151 ± 25.4 | 5520 ± 1660 |  |  | 28.1 ± 9.7 | 880 ± 160 | 

— patent publication US11337971B2, “Dopamine D3 receptor selective antagonists/partial agonists and uses thereof” (THE UNITED STATES OF AMERICA, AS REPRESENTED BY THE …, priority 2018, dated 2022)
